The values below come from patent US8476036B2, “Nonluminogenic assay for living cells” (Promega Corporation, priority 2004, dated 2013).

One test has as its system HL-60 and/or U937. In words: Protease retention assay inhibitor/adjuncts survey with Gly-Phe-AFC. The following applies: for Comments: no inhibition/no effect to (concentration): highest concentration without effect on retention activity. It counts as cell-based. The text has this: (§1) Puromycin, E-64, Phenylmethanesulfonyl fluoride (PMSF), Adenosine 5′-triphosphate (ATP), N-(α-Rhamnopyranosyloxyhyrdoxyphosphinyl)-Leu-Trp disodium salt (Phosphoramidon), N-[(2S,3R)-3-Amino-2-hydroxy-4-phenylbutyryl-L-leucine hydrochloride (Bestatin), 1,10-Phenathroline, […], 4-(2-Aminoethyl)benzenesulfonyl fluoride (AEBSF), 1,4-Dithio-DL-threitol (DTT), Edetate disodium dihyrdrate (EDTA), Isovaleryl-L-valyl-L-valyl-[(3S,4S)-4-amino-3-hydroxy-6-methylheptanoyl]-L-alanyl[93S,4S]-4-amino-3-hydroxy-6-methylheptanoicacid (Pepstatin A), sodium chloride, Aprotinin, N-Acetyl-L-leucyl-L-leucyl-L-argininal hemisulfate salt (leupeptin) were all purchased from Sigma. Inhibitors were resuspended in DMSO to varying stock concentrations with a high target concentration of 200 μM or 200 μg/ml in Dulbecco's Phosphate Buffer Saline w/o Mg^++ or Ca^++ (DPBS) for addition to either lysates or viable cell populations. DTT, NaCl, EDTA, and ATP were also diluted in DPBS. All compounds were incubated with compromised or viable cells for a period of at least 30 minutes (most 60 minutes) at 37° C. prior to assessment of activity.
(§2) The protease retention assay inhibitor/adjuncts survey was conducted on sonicated, saponin-lysed, or viable HL-60 and/or U937 using Gly-Phe-AFC at 100 μM final concentration as described previously. The protease release assay inhibitor/adjuncts survey was conducted on sonicated, saponin-lysed, or viable HL-60, SK-MEL-28, and/or U937 using Ala-Ala-Phe-AMC or (Ala-Ala-Phe)2-Rhodamine 110.

The test system of the next test is HL-60, SK-MEL-28, U937. In words: Protease release assay inhibitor/adjuncts survey with Ala-Ala-Phe-AMC. As to conditions: for Comments: extent of the effect on release activity, in words. The class given is cell-based.
Text: as §1, §2

The mark [1] stands for this setting: on protease retention activity, Gly-Phe-AFC at 100 μM final, sonicated, saponin-lysed, or viable cells.
Setting [2] is: extent or nature of the effect on retention activity, in words.
[3] abbreviates: on protease release activity, Ala-Ala-Phe-AMC, sonicated, saponin-lysed, or viable cells.
Where [4] appears, read: highest concentration without inhibition of release activity.

Structures can show the parent of a compound that is named as a salt. Where two headings read alike, the source gives them in different places. Square brackets hold non-standard residues; d marks the D form. Peptide text beside a SMILES is read from it. * marks the point of attachment. Sta = CC(C)C[C@H](N)[C@@H](O)CC(=O)O; Isovaleryl = CC(C)CC(=O)*

On to `Nc1ncnc2c1ncn2[C@@H]1O[C@H](COP(=O)(O)OP(=O)(O)OP(=O)(O)O)[C@@H](O)[C@H]1O` [ATP, Adenosine 5′-triphosphate], for which, in the test on HL-60 and/or U937, the “Protease retention activity profile in the presence of inhibitors or adjuncts” value is listed as “independent” and the “Comments: no inhibition/no effect to (concentration)” value (“Comments: no inhibition/no effect” below) is recorded as “to 100 uM”. Moreover, the Effect entry with HL-60 and/or U937 (setting [1]) is listed as “No effect”.
Regarding `COc1ccc(C[C@H](N)C(=O)N[C@H]2[C@@H](O)[C@H](n3cnc4c(N(C)C)ncnc43)O[C@@H]2CO)cc1` [Puromycin], the “Protease retention activity profile in the presence of inhibitors or adjuncts” value with HL-60 and/or U937 is “sensitivities”. Further, in the test on HL-60 and/or U937 (setting [2]), the Comments entry is “Very modest”. For the same compound, the Effect result in the test with HL-60 and/or U937 (setting [1]) is listed as “Inhibition”.
With `O[C@@H](CS)[C@@H](O)CS` (racemic) [DTT, 1,4-Dithio-DL-threitol], the “Protease retention activity profile in the presence of inhibitors or adjuncts” value with HL-60 and/or U937 is recorded as “independent”. Moreover, the Comments result with HL-60 and/or U937 (setting [2]) was “Very slightly”; with HL-60, SK-MEL-28, U937, “Modest”. The Effect result is “Augments” with HL-60 and/or U937 (setting [1]) and “Augments” with HL-60, SK-MEL-28, U937 (setting [3]).
For `O=S(=O)(F)Cc1ccccc1` [PMSF, Phenylmethanesulfonyl fluoride], in the test with HL-60 and/or U937, the “Comments: no inhibition/no effect” value is “to 100 uM”. Further, the Effect result is “No inhib” with HL-60 and/or U937 (setting [1]) and “Inhibition” in the test on HL-60, SK-MEL-28, U937 (setting [3]). The Comments entry with HL-60, SK-MEL-28, U937 was “Strong”.
On to `O.O.O=C([O-])CN(CCN(CC(=O)[O-])CC(=O)O)CC(=O)O.[Na+].[Na+]` [EDTA, Edetate disodium dihyrdrate], for which, in the test on HL-60 and/or U937, the Comments entry is “Also reduces”, the Effect entry is “Inhibition” and the “Protease retention activity profile in the presence of inhibitors or adjuncts” value is reported as “sensitivities”. Also, in the test on HL-60, SK-MEL-28, U937, the “Comments: no inhibition to (concentration)” value was “to 50 mM” and the Effect result is “No inhib”.
As for `CC(C)CC(=O)N[C@H](C(=O)N[C@H](C(=O)N[C@@H](CC(C)C)[C@@H](O)CC(=O)N[C@@H](C)C(=O)N[C@@H](CC(C)C)[C@@H](O)CC(=O)O)C(C)C)C(C)C` [Pepstatin, Isovaleryl-L-valyl-L-valyl-[(3S,4S)-4-amino-3-hydroxy-6-methylheptanoyl]-L-alanyl[93S,4S]-4-amino-3-hydroxy-6-methylheptanoicacid] (Isovaleryl-VV[Sta]A[Sta]-OH), the “Comments: no inhibition to (concentration)” value in the test with HL-60, SK-MEL-28, U937 (setting [4]) is listed as “to 100 uM”. Besides, in the test with HL-60, SK-MEL-28, U937 (setting [3]), the Effect entry is listed as “No inhib”.
As for `c1cnc2c(c1)ccc1cccnc12` [1,10 Phenanthroline, 1,10-Phenathroline], the “Comments: no inhibition/no effect” value with HL-60 and/or U937 was “to 100 uM”. Further, the Effect entry is listed as “No inhib” in the test with HL-60 and/or U937 (setting [1]) and “No inhib” in the test with HL-60, SK-MEL-28, U937 (setting [3]). The “Comments: no inhibition to (concentration)” value in the test with HL-60, SK-MEL-28, U937 (setting [4]) is listed as “to 100 uM”.
Regarding `CC(C)C[C@H](NP(=O)(O)O[C@@H]1O[C@@H](C)[C@H](O)[C@@H](O)[C@H]1O)C(=O)N[C@@H](Cc1c[nH]c2ccccc12)C(=O)O` [Phosphoramidon, N-(α-Rhamnopyranosyloxyhyrdoxyphosphinyl)-Leu-Trp disodium salt], the “Comments: no inhibition/no effect” value in the test with HL-60 and/or U937 is “to 100 uM”. For the same compound, the Effect result with HL-60 and/or U937 (setting [1]) is listed as “No inhib”; in the test on HL-60, SK-MEL-28, U937 (setting [3]) it was “No inhib”. For the same compound, the “Comments: no inhibition to (concentration)” value in the test with HL-60, SK-MEL-28, U937 (setting [4]) is “to 100 uM”.
With “Antitrypsin: Serine (trypsin-like) protease inhibitor in Table 6”, the “Comments: no inhibition to (concentration)” value in the test on HL-60, SK-MEL-28, U937 (setting [4]) is reported as “to 100 ug/ml”. In addition, the Effect entry in the test with HL-60, SK-MEL-28, U937 (setting [3]) is “No inhib”.
`CC(=O)N[C@@H](CC(C)C)C(=O)N[C@@H](CC(C)C)C(=O)N[C@H](C=O)CCCNC(=N)N` [Leupeptin, N-Acetyl-L-leucyl-L-leucyl-L-argininal hemisulfate salt]: the “Comments: no inhibition to (concentration)” value in the test on HL-60, SK-MEL-28, U937 (setting [4]) is “to 100 ug/ml”. In the test on HL-60, SK-MEL-28, U937 (setting [3]), the Effect entry is given as “No inhib”.
Take `[Cl-].[Na+]` [NaCl, sodium chloride]: the Comments entry in the test with HL-60 and/or U937 (setting [2]) is recorded as “Insensitivity”. The Effect entry with HL-60 and/or U937 (setting [1]) is recorded as “No inhib”.
On to `O=c1oc(Cl)c(Cl)c2ccccc12` [3,4 Diisocoumarin, 3,4-diisocoumarin], for which the Comments entry in the test with HL-60 and/or U937 (setting [2]) is given as “Kills cells”; in the test with HL-60, SK-MEL-28, U937 it was “Strong”. Further, the Effect entry was “Inhibition(?)” with HL-60 and/or U937 (setting [1]) and “Inhibition” with HL-60, SK-MEL-28, U937 (setting [3]).
In the case of Aprotinin, in the test on HL-60, SK-MEL-28, U937 (setting [4]), the “Comments: no inhibition to (concentration)” value is “to 100 uM”. Further, in the test with HL-60, SK-MEL-28, U937 (setting [3]), the Effect entry is “No inhib”.
For the compound `NC(N)=NCCC[C@H](NC(=O)[C@@H]1CCCN1C(=O)[C@H](N)Cc1ccccc1)C(=O)CCl` [FPR-CMK], the Comments entry in the test with HL-60, SK-MEL-28, U937 is “Moderate”. Besides, the Effect result with HL-60, SK-MEL-28, U937 (setting [3]) is reported as “Inhibition”.
Take `CC(C)C[C@H](NC(=O)[C@H]1O[C@@H]1C(=O)O)C(=O)NCCCCN=C(N)N` [E-64]: the “Comments: no inhibition/no effect” value in the test with HL-60 and/or U937 was “to 100 uM”. Also, the Effect entry with HL-60 and/or U937 (setting [1]) was “No inhib”; with HL-60, SK-MEL-28, U937 (setting [3]), “No inhib”. In addition, the “Comments: no inhibition to (concentration)” value in the test on HL-60, SK-MEL-28, U937 (setting [4]) was “to 100 uM”.
With `CC(C)C[C@H](NC(=O)[C@@H](O)[C@H](N)Cc1ccccc1)C(=O)O` [Bestatin, N-[(2S,3R)-3-Amino-2-hydroxy-4-phenylbutyryl-L-leucine hydrochloride], the “Protease retention activity profile in the presence of inhibitors or adjuncts” value in the test with HL-60 and/or U937 is reported as “sensitivities”. Also, the Comments result with HL-60 and/or U937 (setting [2]) was “Strong”. Moreover, the Effect entry in the test on HL-60 and/or U937 (setting [1]) is recorded as “Inhibition”; with HL-60, SK-MEL-28, U937 (setting [3]) it was “No inhib”. Besides, the “Comments: no inhibition to (concentration)” value in the test with HL-60, SK-MEL-28, U937 (setting [4]) is given as “to 10 uM”.
In the case of `NCCc1ccc(S(=O)(=O)F)cc1` [AEBSF, 4-(2-Aminoethyl)benzenesulfonyl fluoride], the Comments result in the test on HL-60, SK-MEL-28, U937 was “Strong”. In addition, the Effect result in the test on HL-60, SK-MEL-28, U937 (setting [3]) is “Inhibition”.
